Series [1] concerns the target T1, Amine oxidase [flavin-containing] A (Rattus norvegicus, UniProt P21396).
T1 sequence (P21396 whole entry): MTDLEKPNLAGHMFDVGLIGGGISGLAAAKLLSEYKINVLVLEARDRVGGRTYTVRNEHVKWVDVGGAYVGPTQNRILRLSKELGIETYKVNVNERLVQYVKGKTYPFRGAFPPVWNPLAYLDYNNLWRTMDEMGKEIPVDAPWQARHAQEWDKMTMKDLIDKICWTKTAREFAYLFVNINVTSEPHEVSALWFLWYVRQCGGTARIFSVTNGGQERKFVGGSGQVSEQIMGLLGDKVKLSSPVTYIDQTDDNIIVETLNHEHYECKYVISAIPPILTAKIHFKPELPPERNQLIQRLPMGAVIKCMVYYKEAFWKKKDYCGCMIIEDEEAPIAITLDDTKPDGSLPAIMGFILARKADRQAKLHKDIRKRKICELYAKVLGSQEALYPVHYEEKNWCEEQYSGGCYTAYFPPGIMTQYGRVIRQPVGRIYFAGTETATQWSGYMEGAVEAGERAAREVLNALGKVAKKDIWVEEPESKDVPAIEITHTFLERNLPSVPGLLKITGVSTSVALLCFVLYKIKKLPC
Kind of series: Inhibition of MAO-A in rat liver mitochondria using p-tyramine as substrate preincubated for 10 mins followed by substrate addition measured after 30 mins in presence of MAO-B inhibitor deprenyl by Amplex red dye-based fluorescence assay.

For the next series, the species on record is Rattus norvegicus. Kind of series: Selectivity index, ratio of IC50 for MAO-A in rat liver mitochondria to IC50 for MAO-B in rat liver mitochondria.
Series [2] has as its target T2, Amine oxidase [flavin-containing] B (Rattus norvegicus, UniProt P19643).
T2 sequence (P19643 whole entry): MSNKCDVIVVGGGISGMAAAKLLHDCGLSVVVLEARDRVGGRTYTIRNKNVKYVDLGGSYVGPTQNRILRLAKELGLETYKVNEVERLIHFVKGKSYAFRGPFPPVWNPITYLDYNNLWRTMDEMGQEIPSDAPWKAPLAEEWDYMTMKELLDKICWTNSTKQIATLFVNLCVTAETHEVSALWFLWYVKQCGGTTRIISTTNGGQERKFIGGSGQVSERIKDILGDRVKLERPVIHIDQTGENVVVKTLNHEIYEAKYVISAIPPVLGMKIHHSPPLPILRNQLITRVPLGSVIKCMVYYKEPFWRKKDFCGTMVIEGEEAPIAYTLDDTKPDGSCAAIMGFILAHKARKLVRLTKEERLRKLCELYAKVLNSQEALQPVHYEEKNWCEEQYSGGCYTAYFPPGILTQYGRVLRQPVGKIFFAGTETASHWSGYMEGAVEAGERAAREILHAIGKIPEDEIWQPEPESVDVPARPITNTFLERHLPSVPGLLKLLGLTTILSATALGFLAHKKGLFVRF
Put plainly: Inhibition of MAO-B in rat liver mitochondria using p-tyramine as substrate preincubated for 10 mins followed by substrate addition measured after 30 mins in presence of MAO-A inhibitor clorgyline by Amplex red dye-based fluorescence assay.

Series [3] deals with T2, Amine oxidase [flavin-containing] B. Put plainly: Competitive inhibition of MAO-B in rat liver mitochondria using p-tyramine as substrate up to 0.3 uM preincubated for 10 mins followed by substrate addition measured after 30 mins by Lineweaver-burk plot analysis. The settings on record: 0.5 h.

The values below come from ChEMBL document CHEMBL4138153, “Synthesis, monoamine oxidase inhibition activity and molecular docking studies of novel 4-hydroxy-N'-[benzylidene or 1-phenylethylidene]-2-H/methyl/benzyl-1,2-benzothiazine-3-carbohydrazide 1,1-dioxides” (Eur J Med Chem, 2018).

pIC50: −log10 of the molar value.

In general, pIC50 refers to −log10 of the IC50, conventionally taken in molar units. For the compound `O=C(N/N=C/c1ccc(Cl)cc1)C1=C(O)c2ccccc2S(=O)(=O)N1`, the figures for the pIC50 in series [1] and in series [2] were 6.75 and 6.51, respectively. In addition, the Ratio IC50 in the series listed under Rattus norvegicus is 0.57.

`O=C(N/N=C/c1cccc(Cl)c1)C1=C(O)c2ccccc2S(=O)(=O)N1`: the values for the pIC50 in series [1] and in series [2] were 6.46 and 4.41, respectively. The Ratio IC50 in the series listed under Rattus norvegicus was found to be 0.01.

With `CN1C(C(=O)NN)=C(O)c2ccccc2S1(=O)=O`, the pIC50 is 6.92 in series [1] and 5.82 in series [2]. Also, in the series filed under Rattus norvegicus, the Ratio IC50 was 0.08.

Turning to `COc1ccc(/C=N/NC(=O)C2=C(O)c3ccccc3S(=O)(=O)N2C)cc1`, the pIC50 in series [1] is 4.72; in series [2] it was 4.64. In the series listed under Rattus norvegicus, the Ratio IC50 worked out at 0.82.

`NNC(=O)C1=C(O)c2ccccc2S(=O)(=O)N1`: the pIC50 in series [1] was 5.80; in series [2], 5.36. For the same compound, the Ratio IC50 in the series listed under Rattus norvegicus was 0.36.

In the case of `C/C(=N\NC(=O)C1=C(O)c2ccccc2S(=O)(=O)N1Cc1ccccc1)c1ccc(F)cc1`, the pIC50 in series [1] was at most 4.00; in series [2], 5.22. Moreover, the Ratio IC50 in the series listed under Rattus norvegicus is above 16.5.

In the case of `CN1C(C(=O)N/N=C/c2ccccc2O)=C(O)c2ccccc2S1(=O)=O`, the pIC50 in series [1] was 4.94; in series [2] it was 5.47. In addition, the Ratio IC50 in the series filed under Rattus norvegicus was found to be 3.34.

With `O=C(N/N=C/c1ccccc1O)C1=C(O)c2ccccc2S(=O)(=O)N1Cc1ccccc1`, the pIC50 is 4.73 in series [1] and 5.37 in series [2]. Moreover, the Ratio IC50 in the series listed under Rattus norvegicus worked out at 4.41.

Consider `O=C(N/N=C/c1ccc(Cl)cc1)C1=C(O)c2ccccc2S(=O)(=O)N1Cc1ccccc1`, for which the pIC50 in series [1] was at most 4.00; in series [2], 5.68. Also, the Ratio IC50 in the series listed under Rattus norvegicus is above 48.1.

With `Cc1ccc(/C=N/NC(=O)C2=C(O)c3ccccc3S(=O)(=O)N2C)cc1`, the pIC50 in series [1] is 5.31; in series [2], 4.62. In addition, in the series filed under Rattus norvegicus, the Ratio IC50 was found to be 0.2.

On to `COC(=O)CN1C(=O)c2ccccc2S1(=O)=O`, for which the pIC50 in series [1] was 5.95; in series [2] it was 6.57. The Ratio IC50 in the series filed under Rattus norvegicus is 4.11.

On to `CN1C(C(=O)N/N=C/c2ccccc2)=C(O)c2ccccc2S1(=O)=O`, for which the pIC50 in series [1] is 4.68; in series [2] it was 5.75. In addition, in the series listed under Rattus norvegicus, the Ratio IC50 is 11.9.

In the case of `C/C(=N\NC(=O)C1=C(O)c2ccccc2S(=O)(=O)N1C)c1ccc(F)cc1`, the pIC50 in series [1] was 4.97; in series [2] it was 4.60. Besides, the Ratio IC50 in the series filed under Rattus norvegicus is 0.43.

In the case of `O=C(NN=C1CCCC1)C1=C(O)c2ccccc2S(=O)(=O)N1`, the pIC50 is at most 4.00 in series [1] and 6.04 in series [2]. The Ratio IC50 in the series filed under Rattus norvegicus was above 109.

As to `CN1C(C(=O)N/N=C/c2ccc(Cl)cc2)=C(O)c2ccccc2S1(=O)=O`, the values for the pIC50 in series [1] and in series [2] were 5.21 and 4.81, respectively. Moreover, the Ratio IC50 in the series filed under Rattus norvegicus is 0.39.

Regarding `COc1ccc(/C=N/NC(=O)C2=C(O)c3ccccc3S(=O)(=O)N2Cc2ccccc2)cc1`, the pIC50 was 6.62 in series [1] and 6.54 in series [2]. In the series listed under Rattus norvegicus, the Ratio IC50 is 0.83.

Consider `CCOc1ccc(/C=N/NC(=O)C2=C(O)c3ccccc3S(=O)(=O)N2)cc1`, for which the results for the pIC50 in series [1] and in series [2] were 4.77 and 5.03, respectively. Further, in the series listed under Rattus norvegicus, the Ratio IC50 stood at 1.81.

As for `Cc1ccc(/C=N/NC(=O)C2=C(O)c3ccccc3S(=O)(=O)N2)cc1`, the pIC50 is 5.13 in series [1] and 6.19 in series [2]. Further, the Ratio IC50 in the series listed under Rattus norvegicus was 11.7.

On to `CC(C)c1ccc(/C=N/NC(=O)C2=C(O)c3ccccc3S(=O)(=O)N2)cc1`, for which the pIC50 in series [1] was at most 4.00; in series [2], 4.42. Besides, in the series listed under Rattus norvegicus, the Ratio IC50 was above 2.62.

With `COC(=O)C1=C(O)c2ccccc2S(=O)(=O)N1`, the pIC50 is 5.53 in series [1] and 6.68 in series [2]. The “inhibition (INH)” value in series [3] is “Active”. The Ratio IC50 in the series filed under Rattus norvegicus came out at 14.1.

On to `CN1C(C(=O)NN=C2CCCC2)=C(O)c2ccccc2S1(=O)=O`, for which the pIC50 is 6.42 in series [1] and 5.06 in series [2]. The Ratio IC50 in the series listed under Rattus norvegicus was found to be 0.04.

For the compound `CN1C(C(=O)N/N=C/c2cccc(Cl)c2)=C(O)c2ccccc2S1(=O)=O`, the pIC50 was 4.53 in series [1] and 4.42 in series [2]. In addition, the Ratio IC50 in the series filed under Rattus norvegicus was determined as 0.78.

On to `O=C(NN=C1CCCC1)C1=C(O)c2ccccc2S(=O)(=O)N1Cc1ccccc1`, for which the pIC50 in series [1] was at most 4.00; in series [2] it was 6.00. For the same compound, the Ratio IC50 in the series filed under Rattus norvegicus is above 101.

Take `O=C(N/N=C/c1ccccc1)C1=C(O)c2ccccc2S(=O)(=O)N1Cc1ccccc1`: the pIC50 is at most 4.00 in series [1] and 5.02 in series [2]. Also, in the series filed under Rattus norvegicus, the Ratio IC50 is above 10.5.

Take `O=C(N/N=C/c1cccc(Cl)c1)C1=C(O)c2ccccc2S(=O)(=O)N1Cc1ccccc1`: the values for the pIC50 in series [1] and in series [2] were 6.02 and 4.44, respectively. For the same compound, in the series filed under Rattus norvegicus, the Ratio IC50 was 0.02.

With `CC(C)c1ccc(/C=N/NC(=O)C2=C(O)c3ccccc3S(=O)(=O)N2Cc2ccccc2)cc1`, the pIC50 is 5.29 in series [1] and 4.43 in series [2]. The Ratio IC50 in the series listed under Rattus norvegicus is 0.13.

`O=C(N/N=C/c1ccccc1O)C1=C(O)c2ccccc2S(=O)(=O)N1`: the pIC50 in series [1] is 5.29; in series [2], 5.02. For the same compound, the Ratio IC50 in the series filed under Rattus norvegicus was found to be 0.53.

For `C/C(=N\NC(=O)C1=C(O)c2ccccc2S(=O)(=O)N1Cc1ccccc1)c1ccc(Cl)cc1`, the pIC50 was 6.48 in series [1] and 5.00 in series [2]. Moreover, the Ratio IC50 in the series listed under Rattus norvegicus was determined as 0.03.

With `CC(C)c1ccc(/C=N/NC(=O)C2=C(O)c3ccccc3S(=O)(=O)N2C)cc1`, the values for the pIC50 in series [1] and in series [2] were 6.36 and 4.74, respectively. Besides, the Ratio IC50 in the series listed under Rattus norvegicus came to 0.02.

Regarding `C/C(=N\NC(=O)C1=C(O)c2ccccc2S(=O)(=O)N1C)c1ccccc1`, the values for the negative-log IC50 (pIC50) in series [1] and in series [2] were 5.18 and 5.15, respectively. Further, the Ratio IC50 in the series listed under Rattus norvegicus was 0.93.

`CCOc1ccc(/C=N/NC(=O)C2=C(O)c3ccccc3S(=O)(=O)N2C)cc1`: the pIC50 in series [1] was 6.49; in series [2] it was 6.12. Further, the Ratio IC50 in the series filed under Rattus norvegicus stood at 0.42.

For the compound `C/C(=N\NC(=O)C1=C(O)c2ccccc2S(=O)(=O)N1)c1ccc(F)cc1`, the pIC50 in series [1] is 4.27; in series [2], 4.39. In the series filed under Rattus norvegicus, the Ratio IC50 was determined as 1.32.

Regarding `NNC(=O)C1=C(O)c2ccccc2S(=O)(=O)N1Cc1ccccc1`, the figures for the pIC50 in series [1] and in series [2] were at most 4.00 and 4.97, respectively. Also, the Ratio IC50 in the series filed under Rattus norvegicus was above 9.43.

For `CCOc1ccc(/C=N/NC(=O)C2=C(O)c3ccccc3S(=O)(=O)N2Cc2ccccc2)cc1`, the pIC50 in series [1] was 4.55; in series [2], 5.24. Moreover, in the series listed under Rattus norvegicus, the Ratio IC50 is 4.89.

Consider `COC(=O)C1=C(O)c2ccccc2S(=O)(=O)N1C`, for which the pIC50 was 4.58 in series [1] and 4.64 in series [2]. For the same compound, the Ratio IC50 in the series listed under Rattus norvegicus is 1.15.

For the compound `O=C(N/N=C/c1ccccc1)C1=C(O)c2ccccc2S(=O)(=O)N1`, the pIC50 in series [1] was 5.72; in series [2], 5.05. Further, in the series listed under Rattus norvegicus, the Ratio IC50 was 0.21.

On to `C/C(=N\NC(=O)C1=C(O)c2ccccc2S(=O)(=O)N1)c1ccc(Cl)cc1`, for which the pIC50 is at most 4.00 in series [1] and 4.96 in series [2]. For the same compound, in the series filed under Rattus norvegicus, the Ratio IC50 is above 9.17.

For the compound `COc1ccc(/C=N/NC(=O)C2=C(O)c3ccccc3S(=O)(=O)N2)cc1`, the pIC50 was 5.24 in series [1] and 5.72 in series [2]. The Ratio IC50 in the series filed under Rattus norvegicus was 3.02.

Consider `COC(=O)C1=C(O)c2ccccc2S(=O)(=O)N1Cc1ccccc1`, for which the figures for the pIC50 in series [1] and in series [2] were 5.02 and 6.54, respectively. Besides, the Ratio IC50 in the series filed under Rattus norvegicus was found to be 32.8.

Turning to `Cc1ccc(/C=N/NC(=O)C2=C(O)c3ccccc3S(=O)(=O)N2Cc2ccccc2)cc1`, the results for the pIC50 in series [1] and in series [2] were at most 4.00 and 4.05, respectively. In addition, the Ratio IC50 in the series listed under Rattus norvegicus is above 1.12.

Regarding `C/C(=N\NC(=O)C1=C(O)c2ccccc2S(=O)(=O)N1C)c1ccc(Cl)cc1`, the values for the pIC50 in series [1] and in series [2] were 4.95 and 6.12, respectively. The Ratio IC50 in the series filed under Rattus norvegicus amounted to 14.7.

For the compound `C/C(=N\NC(=O)C1=C(O)c2ccccc2S(=O)(=O)N1Cc1ccccc1)c1ccccc1`, the pIC50 in series [1] is 5.91; in series [2], 5.65. Further, the Ratio IC50 in the series listed under Rattus norvegicus is 0.54.
